Reference: patent US4024082A, “Analgesics” (priority 1975, dated 1977)

How the values were obtained:
[1] = system: acetic acid induced stretching; assay: Analgesic activity, acetic acid induced stretching method; assay type: in vivo, male albino mice dd strain; conditions: for ED50, Mean Value: 60 min
Method: (§1) The dl-KMG-86, d-KMG-86 and l-KMG-86 were all screened for their biological activity by the assays described in the reference J. Med. Chem. 16, 301 (1973). All three compounds were screened for their analgesic activity by the acetic acid induced stretching method of R. Kosta, Fed. Proc., Fed. Amer. Soc. Exp. Biol., 18, 412 (1959). Male albino mice dd strain (18.0-22.0 g.) were used. After the compounds were administered subcutaneously to five groups of animals consisting of ten mice per group, the effective ratio until 60 minutes was examined and the effective dose in 50% of the mice (ED50) was calculated by the Lichfield-Wilcoxin method [J. T. Lichfield and F. Wilcoxin, J. Pharmacol., 96, 99 (1949)]. […] Med. Wochenschr., 55, 731 (1929)], in which ten male mice dd strain per group were used.

morphine analgesia = assay: Antagonism of morphine analgesia, Haffner method; assay type: in vivo, male mice dd strain; conditions: morphine 16 mg/kg subcutaneously
Method: as §1

Side effects or toxicity = conditions: in vivo
[2] = Morphine analgesia (Haffner method); assay type: in vivo, male mice dd strain; conditions: subcutaneously
Method: as §1

[3] = J. Med. Chem. 16, 301 (1973); cited from earlier work
[4] = as described in U.S. Pat. No. 3,728,347; cited from earlier work
[5] = as described in U.S. Pat. No. 3,728,347; cited from earlier work; remark: listed apart in the source
[6] = humans; cited from earlier work
[7] = stretching method, subcutaneous, effective ratio until 60 minutes, Lichfield-Wilcoxin method

CC(C)=CCN1CCC2(C)c3cc(O)ccc3CC1C2C (centres unmarked) [Pentazocine, reference compound]
ED50 ([1]; Mus musculus, sc, 1 h, stretching method, subcutaneous, effective ratio until 60 minutes, Lichfield-Wilcoxin method): 2.4 mg/kg

Oc1ccc2c(c1)C13CCCCC1N(C2)N(CC1CC1)CC3 (stereo not drawn) [l-KMG-86, l-N-cyclopropylmethyl-3-hydroxy-9-azamorphinan]
potency of l-isomer relative to dl-mixture ([1]; from Table I ED50 (stretching method)): about 3.5 fold
ED50, Mean Value [1, 7]: 0.45 mg/kg
Antagonist Dose (AD50) (morphine analgesia): 2.20 mg/kg, S. C.
side effects or toxicity (Side effects or toxicity): no substantial side effects or toxicity

CN1CC[C@]23c4c5ccc(O)c4O[C@H]2[C@@H](O)C=C[C@H]3[C@H]1C5 [morphine]
ED100 of morphine [2]: 16 mg/kg

Oc1ccc2c(c1)C13CCCCC1N(C2)N(CC1CC1)CC3 (racemic) [dl-KMG-86, dl-N-cyclopropylmethyl-3-hydroxy-9-azamorphinan]
ED50, Mean Value [1, 7]: 1.63 mg/kg
Antagonist Dose (AD50) (morphine analgesia): 4.70 mg/kg, S. C.
activity relative to pentazocine [3]: about twice as active as pentazocine
analgesic activity compared with morphine [4]: remarkable analgesic activity as strong as that possessed by morphine
opiate dependence liability [5]: lacking opiate dependence liability
confirmation in clinical studies of the activity found in mice [6]: The activity found in mice was confirmed in clinical studies in humans

Oc1ccc2c(c1)C13CCCCC1N(C2)N(CC1CC1)CC3 (stereo not drawn) [d-KMG-86, d-N-cyclopropylmethyl-3-hydroxy-9-azamorphinan]
ED50, Mean Value [1, 7]: ca. 80 mg/kg
Antagonist Dose (AD50) (morphine analgesia): 20 mg/kg, S. C.
